Experimental data as given in patent publication US20250034116A1, “1,4-DIHETEROCYCLIC SUBSTITUTED AROMATIC RING OR AROMATIC HETEROCYCLIC COMPOUND AND USE THEREOF” (BeBetter Med Inc., priority 2022, published 2025).

How the values were obtained:
[1] = test system: CYP enzymes in human liver microsomes (HLM); assay: Inhibition of 20-HETE production in human liver microsomes (HLM); format: biochemical
Method in brief: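 LC-MS/MS read-out of 20-HETE formation, expressed as activity relative to no-inhibitor control and fitted to a Hill equation for IC50; percent inhibition also given at 1000, 500 or 100 nM. Enzyme sources: recombinant CYP4F2, recombinant CYP4A11, or human or mouse liver microsomes. Each is combined with compound and substrate (400 μM solution) and warmed 10 min at 37 °C, then incubated 25 min at 37 °C after adding NADPH (6 mM solution).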

[2] = test system: CYP enzymes in mouse liver microsomes (MLM); assay: Inhibition of 20-HETE production in mouse liver microsomes (MLM); format: biochemical
Procedure: (§1) Experimental principle: The inhibitory activity of 20-HETE production is evaluated by testing the inhibitory effects of the compound on human liver microsomes (HLM), rat liver microsomes (RLM), mouse liver microsomes (MLM), or […] CYP4 subtype enzymes (CYP4F2). This assay employs HLM, RLM, or MLM along with recombinant CYP4F2 (rCYP4F2) and recombinant CYP4A11 (rCYP4A11), which are […] CYP4 subtype enzymes, to detect the effects of the test compound at different concentrations on the metabolic rate of enzyme-specific substrates, to determine the inhibitory effects of the test compound on CYP enzymes in HLM, RLM, or MLM.
(§2) Experimental methods: Dissolve the test compound in DMSO, and subsequently dilute it with an acetonitrile and DMSO mixture (3:1). Add 2 μl of varying concentrations of the test compound and 100 μl of potassium phosphate buffer containing either liver microsomes or recombinant enzymes to a 96-well plate. After mixing well, transfer 30 μl to another well (in duplicate), add 15 μl of 400 μM substrate solution, and mix well again. Preheat at 37° C. for 10 minutes, and then add 15 μl of 6 mM NADPH and incubate at 37° C. for 25 minutes. After 25 minutes, add 160 μl of acetonitrile solution (containing 0.1 μg/ml internal standard) to stop the reaction. Mix well, centrifuge at 3500 g for 15 minutes, and then analyze the supernatant using LC-MS/MS.
(§3) Plot the compound concentration on the x-axis and the inhibition rate on the y-axis to draw the curve. Use GraphPad Prism 5 software to fit the curve and calculate the IC50. The formula is Y=Bottom+(Top−Bottom)/(1+10^((Log IC50−X)×HillSlope)). X represents the logarithmic concentration of the inhibitor, and Y represents the relative enzyme activity at a given inhibitor concentration (relative to the condition without the inhibitor).
(§4) Calculate the inhibition percentages at concentrations of 1000 nM, 500 nM, or 100 nM as well as the half-maximal inhibitory concentration (IC50) of the test compound from the above experiment.

[3] = test system: CYP enzymes in rat liver microsomes (RLM); assay: Inhibition of 20-HETE production in rat liver microsomes (RLM); format: biochemical
Method in brief: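 Test compounds were dissolved in DMSO, diluted in acetonitrile/DMSO (3:1), and 2 μl was mixed with 100 μl potassium phosphate buffer containing rat liver microsomes in a 96-well plate. Duplicate 30 μl aliquots received 15 μl of 400 μM substrate, were preheated at 37° C. for 10 minutes, then started with 15 μl of 6 mM NADPH for 25 minutes. LC-MS/MS measured 20-HETE formation.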

[4] = target: recombinant CYP4F2 (rCYP4F2) (Homo sapiens (Human), UniProt P78329); assay: Inhibition of 20-HETE production by recombinant CYP4F2; format: biochemical; conditions: read-out: rCYP4F2 (% inh @ 100 nM)
Sequence of recombinant CYP4F2 (rCYP4F2) (P78329 5-520): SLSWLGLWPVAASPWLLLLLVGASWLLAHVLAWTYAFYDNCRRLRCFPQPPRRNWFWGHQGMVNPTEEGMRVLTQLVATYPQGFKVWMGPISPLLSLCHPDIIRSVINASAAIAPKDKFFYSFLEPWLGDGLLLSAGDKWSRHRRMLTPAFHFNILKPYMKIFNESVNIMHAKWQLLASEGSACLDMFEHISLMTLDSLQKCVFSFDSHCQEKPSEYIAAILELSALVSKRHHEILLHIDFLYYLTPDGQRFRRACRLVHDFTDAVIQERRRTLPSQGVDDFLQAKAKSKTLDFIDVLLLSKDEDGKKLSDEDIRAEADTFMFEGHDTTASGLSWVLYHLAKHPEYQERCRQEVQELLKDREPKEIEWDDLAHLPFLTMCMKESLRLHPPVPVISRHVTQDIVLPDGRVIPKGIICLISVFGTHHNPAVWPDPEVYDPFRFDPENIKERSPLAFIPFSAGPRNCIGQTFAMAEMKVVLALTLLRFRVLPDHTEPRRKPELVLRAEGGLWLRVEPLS
Procedure: as §1, §2, §3, §4

[5] = target: recombinant CYP4A11 (rCYP4A11) (Homo sapiens (Human), UniProt Q02928); assay: Inhibition of 20-HETE production by recombinant CYP4A11; format: biochemical; conditions: read-out: rCYP4A11 (% inh @ 100 nM)
Sequence of recombinant CYP4A11 (rCYP4A11) (Q02928 5-519): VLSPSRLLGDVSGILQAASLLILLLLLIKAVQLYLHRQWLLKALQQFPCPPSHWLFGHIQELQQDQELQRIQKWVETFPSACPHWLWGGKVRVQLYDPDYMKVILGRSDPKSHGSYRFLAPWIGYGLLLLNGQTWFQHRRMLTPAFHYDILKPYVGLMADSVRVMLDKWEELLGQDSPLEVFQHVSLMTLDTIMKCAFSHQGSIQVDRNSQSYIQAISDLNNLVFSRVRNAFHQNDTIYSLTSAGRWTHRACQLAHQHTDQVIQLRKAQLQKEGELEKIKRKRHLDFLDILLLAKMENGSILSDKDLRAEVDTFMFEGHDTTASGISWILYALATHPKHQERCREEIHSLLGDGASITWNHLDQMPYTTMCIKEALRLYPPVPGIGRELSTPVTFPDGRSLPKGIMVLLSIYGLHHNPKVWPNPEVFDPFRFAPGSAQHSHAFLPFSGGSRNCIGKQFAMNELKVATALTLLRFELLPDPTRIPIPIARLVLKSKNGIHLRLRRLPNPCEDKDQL
Procedure: as §1, §2, §3, §4

[6] = Pharmacokinetic (PK) experiment, oral administration in rats; format: in vivo, Male SD rats; conditions: 20 mg/kg; for AUC(0-inf) / Cmax / Tmax / half-life / AUC(0-t): male, SD, rat, plasma; for AUC(0-t): read-out: AUC0-24
Procedure: Male SD rats, weighing 180-250 grams, were fasted overnight before testing. The test compound was dissolved in 30% sulfobutylether-β-cyclodextrin and administered orally at a dose of 20 mg/kg. Blood was collected from the tail vein at 15 minutes, 30 minutes, and 1, 2, 4, 6, 8, and 24 hours after administration. Approximately 0.3 ml of blood was collected at each time point, placed in a centrifuge tube containing K2-EDTA, and centrifuged (2000 g for 10 minutes at 4° C.) to take the plasma, which was then stored in an ultra-low temperature freezer at −70° C. or below. A 50 μL plasma sample was mixed with 135 μL of acetonitrile (containing 0.5 μg/mL internal standard) and vortexed for protein precipitation. After centrifugation, the supernatant was taken for LC-MS/MS analysis.

CC1CN(c2ccc(-c3cn[nH]c3)cc2F)CC(C)N1C(=O)N1CCCC1 (stereo not drawn) [Compound 130, (4-(2-fluoro-4-(1H-pyrazol-4-yl)phenyl)-2,6-dimethylpiperazin-1-yl)(pyrrolidin-1-yl) methanone]
IC50 [1]: 7.62 nM
IC50 [2]: 414 nM
IC50 [3]: 22.8 nM

O=C1CCCN1CC1CCN(c2ccc(-c3cn[nH]c3)cc2C(F)F)CC1 [Compound 19, 1-((1-(2-(difluoromethyl)-4-(1H-pyrazol-4-yl)phenyl)piperidin-4-yl)methyl)pyrrolidin-2-one]
HLM (% inh @ 500 nM) [1]: 87.01%
inhibition at 0.1 µM [4]: 61.4%
IC50 [3]: 434 nM
RLM (% inh @ 500 nM) [3]: 59.42%
inhibition at 0.1 µM [5]: 58.7%

O=C(NCC1CCN(c2ccc(-c3cn[nH]c3)cc2)CC1)c1ccccc1 [Compound 47, N-((1-(4-(1H-pyrazol-4-yl)phenyl)piperidin-4-yl)methyl)benzamide]
IC50 [1]: 42.7 nM
inhibition at 0.1 µM [4]: 66%
RLM (% inh @ 500 nM) [3]: 35.64%
inhibition at 0.1 µM [5]: 41.1%

O=C(NC1CCCCC1)C1CCN(c2ccc(-c3cn[nH]c3)cc2)CC1 [Compound 57, 1-(4-(1H-pyrazol-4-yl)phenyl)-N-cyclohexylpiperidine-4-carboxamide]
HLM (% inh @ 500 nM) [1]: 81.76%
inhibition at 0.1 µM [4]: 61.7%
RLM (% inh @ 500 nM) [3]: 49.97%
inhibition at 0.1 µM [5]: 8.98%

O=C1CCC(C(=O)N2CCC(c3ccc(-c4cn[nH]c4)c(F)c3F)CC2)CC1 [Compound 107, 4-(4-(2,3-difluoro-4-(1H-pyrazol-4-yl)phenyl)piperidine-1-carbonyl)cyclohexane-1-one]
IC50 [1]: 23.6 nM
IC50 [2]: 720 nM
IC50 [3]: 33.4 nM
RLM (% inh @ 500 nM) [3]: 69.55%

O=C(Nc1ccc2ccccc2c1)C1CCN(c2ccc(-c3cn[nH]c3)cc2)CC1 [Compound 64, 1-(4-(1H-pyrazol-4-yl)phenyl)-N-(naphthalen-2-yl)piperidine-4-carboxamide]
IC50 [1]: 20 nM
HLM (% inh @ 500 nM) [1]: 81.86%
inhibition at 0.1 µM [4]: 73.8%
IC50 [3]: 86.4 nM
inhibition at 0.1 µM [5]: 40.6%

C[C@@H]1CN(c2ccc(-c3cn[nH]c3)c(F)c2F)CCN1C(=O)N1CCCC1 [Compound 103, (R)-(4-(2,3-difluoro-4-(1H-pyrazol-4-yl)phenyl)-2-methylpiperazin-1-yl)(pyrrolidin-1-yl) methanone]
IC50 [1]: 12 nM
HLM (% inh @ 500 nM) [1]: 80.55%
IC50 [2]: 743 nM
RLM (% inh @ 500 nM) [3]: 74.73%

O=C(Nc1ccc2occc2c1)C1CCN(c2ccc(-c3cn[nH]c3)cc2)CC1 [Compound 62, 1-(4-(1H-pyrazol-4-yl)phenyl)-N-(benzofuran-5-yl)piperidine-4-carboxamide]
IC50 [1]: 19.6 nM
HLM (% inh @ 500 nM) [1]: 85.05%
inhibition at 0.1 µM [4]: 79.2%
RLM (% inh @ 500 nM) [3]: 50.28%
inhibition at 0.1 µM [5]: 25.8%

O=C(N1CC=C(c2ccc(-c3cn[nH]c3)c(F)c2F)CC1)N1CCCC1 [Compound 91, (4-(2,3-difluoro-4-(1H-pyrazol-4-yl)phenyl)-3,6-dihydropyridin-1(2H)-yl)(pyrrolidin-1-yl) methanone]
absorption and blood exposure after oral administration (in words) [6]: well absorbed and exhibit high blood exposure
AUC(0-inf) [6]: 107000 ng·h/mL
Cmax [6]: 11400 ng/mL
Tmax [6]: 2.5 h
half-life [6]: 2.22 h
AUC(0-t) [6]: 107000 ng·h/mL
IC50 [1]: 19.1 nM
HLM (% inh @ 500 nM) [1]: 96.45%
IC50 [2]: 735 nM
IC50 [3]: 9.09 nM

O=S1(=O)CCCCN1CC1CCN(c2ccc(-c3cn[nH]c3)cc2F)CC1 [Compound 163, 2-((1-(2-fluoro-4-(1H-pyrazol-4-yl)phenyl)piperidin-4-yl)methyl)-1,2-thiazinane 1,1-dioxide]
absorption and blood exposure after oral administration (in words) [6]: well absorbed and exhibit high blood exposure
AUC(0-inf) [6]: 44700 ng·h/mL
Cmax [6]: 6680 ng/mL
Tmax [6]: 1.67 h
half-life [6]: 4.03 h
AUC(0-t) [6]: 44100 ng·h/mL
IC50 [1]: 9.53 nM
HLM (% inh @ 500 nM) [1]: 90.91%
IC50 [2]: 1010 nM
IC50 [3]: 222 nM
RLM (% inh @ 500 nM) [3]: 64.17%

O=C(Nc1ccccc1)C1CCN(c2ccc(-c3cn[nH]c3)cc2)CC1 [Compound 58, 1-(4-(1H-pyrazol-4-yl)phenyl)-N-phenylpiperidine-4-carboxamide]
IC50 [1]: 16.6 nM
IC50 [2]: 1570 nM
RLM (% inh @ 500 nM) [3]: 44.45%

C[C@H]1CN(c2ccc(-c3cn[nH]c3)c(F)c2F)CCN1C(=O)N1CCCC1 [Compound 105, (S)-(4-(2,3-difluoro-4-(1H-pyrazol-4-yl)phenyl)-2-methylpiperazin-1-yl)(pyrrolidin-1-yl) methanone]
IC50 [1]: 11.1 nM
HLM (% inh @ 500 nM) [1]: 79.54%
IC50 [2]: 1520 nM
IC50 [3]: 9.78 nM

O=C(N1CCC(c2ccc(-c3cn[nH]c3)cc2F)CC1)N1CC2CCCC2C1 (stereo not drawn) [Compound 106, (4-(2-fluoro-4-(1H-pyrazol-4-yl)phenyl)piperidin-1-yl)(hexahydrocyclopenta[c]pyrrol-2 (1H)-yl) methanone]
IC50 [1]: 23.2 nM
HLM (% inh @ 500 nM) [1]: 91.17%
IC50 [2]: 2810 nM
IC50 [3]: 10.7 nM
RLM (% inh @ 500 nM) [3]: 84.57%

O=C(N1CCC(c2ccc(-c3cn[nH]c3)c(F)c2F)CC1)C1(O)CCCCC1 [Compound 110, (4-(2,3-difluoro-4-(1H-pyrazol-4-yl)phenyl)piperidin-1-yl)(1-hydroxycyclohexyl) methanone]
IC50 [1]: 16.1 nM
HLM (% inh @ 500 nM) [1]: 92.92%
IC50 [2]: 174 nM
IC50 [3]: 29.5 nM
RLM (% inh @ 500 nM) [3]: 77.32%

O=C(CC1CCCC1)N1CCC(c2ccc(-c3cn[nH]c3)c(F)c2F)CC1 [Compound 93, 2-cyclopentyl-1-(4-(2,3-difluoro-4-(1H-pyrazol-4-yl)phenyl)piperidin-1-yl)ethan-1-one]
HLM (% inh @ 500 nM) [1]: 91.77%
IC50 [2]: 296 nM
RLM (% inh @ 500 nM) [3]: 80.86%

O=C(N1CCCC1)N1CC2CN(c3ccc(-c4cn[nH]c4)c(F)c3F)CC2C1 (stereo not drawn) [Compound 127, (5-(2,3-difluoro-4-(1H-pyrazol-4-yl)phenyl)hexahydropyrrolo[3,4-c]pyrrol-2 (1H)-yl)(pyrrolidin-1-yl) methanone]
IC50 [1]: 18.3 nM
IC50 [2]: 1900 nM
IC50 [3]: 17.9 nM
RLM (% inh @ 500 nM) [3]: 74.10%

CC(C)(O)CNC(=O)N1CCC(c2ccc(-c3cn[nH]c3)cc2F)CC1 [Compound 152, 4-(2-fluoro-4-(1H-pyrazol-4-yl)phenyl)-N-(2-hydroxy-2-methylpropyl)piperidine-1-carboxamide]
HLM (% inh @ 100 nM) [1]: 88.49%
MLM (% inh @ 1000 nM) [2]: 48.10%

O=C1CCCCCN1CC1CCN(c2ccc(-c3cn[nH]c3)cc2F)CC1 [Compound 161, 1-((1-(2-fluoro-4-(1H-pyrazol-4-yl)phenyl)piperidin-4-yl)methyl) azepan-2-one]
HLM (% inh @ 100 nM) [1]: 86.45%
MLM (% inh @ 1000 nM) [2]: 59.36%

O=C(C1CCCC1)N1CCC2(CCN(c3ccc(-c4cn[nH]c4)cc3F)C2)C1 (stereo not drawn) [Compound 124, cyclopentyl(7-(2-fluoro-4-(1H-pyrazol-4-yl)phenyl)-2,7-diazaspiro[4.4]nonan-2-yl) methanone]
IC50 [1]: 32.8 nM
HLM (% inh @ 500 nM) [1]: 88.29%
IC50 [2]: 1850 nM
RLM (% inh @ 500 nM) [3]: 74.61%
